{"source": "patent US20250179047A1", "about": "“5-[7-(3,4-DIHYDRO-1H-ISOQUINOLINE-2-CARBONYL)-1,2,3,4 TETRAHYDROISOQUINOLIN-6-YL]-1H-PYRROLE-3-CARBOXAMIDE DERIVATIVES, PHARMACEUTICAL COMPOSITIONS CONTAINING THEM AND THEIR USES AS PRO-APOPTOTIC AGENTS” (LES LABORATOIRES SERVIER, priority 2022, published 2025)", "key": {"[1]": {"biological_target": "BCL2 G101V (Homo sapiens, UniProt P10415, G101V)", "experiment": "TR-FRET competitive binding assay, BCL2 G101V", "settings": "BCL2 G101V; Ki determined from IC50; read-out: TR_FRET EKI_Bcl2 G101V", "outline": "(§1)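 Terbium-labelled N-terminal Halo-fusion BCL2 or BCLXL (E. coli), 0.5 nM, competed against fluorescein-labelled PUMA peptide (2 or 20 nM) for 2 h at 23° C in 50 mM Hepes pH 7.5, 150 mM NaCl, 5% DMSO. TR-FRET 520/495 nm ratio gave IC50 by four-parameter fit; Ki derived from IC50.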"}, "[2]": {"system": "BCL2 G101V", "experiment": "TR-FRET competitive binding assay, BCL2 G101V", "parameters": "species or system human", "settings": "ratio Ki BCL2 G101V / Ki BCL2 WT", "outline": "as §1"}, "[3]": {"experiment": "Pharmacokinetics in SCID mice", "format": "in vivo", "settings": "25 mg/kg IV bolus; for PK parameters Cinf: concentration at the end of bolus administration; for AUC: mouse, blood, area under curve over 24 h, read-out: PK parameters AUC24", "protocol": "(§2) Pharmacokinetic (PK) and platelet toxicity were investigated in SCID mice. Compounds were administered at 25 mg/kg by IV bolus, and formulated in PEG/Ethanol/NaCl 0.9% (40/10/50 v/v/v).\n(§3) Blood samples (3 animals/time point and 3 time points/animal) were collected over 24 h after dosing: 0.05 h, 0.5 h, 1 h, 3 h, 6 h and 24 h for PK and 6 h and 24 h for platelets.\n(§4) PK samples were analyzed by liquid chromatography using tandem mass spectrometry detection (LC-MS/MS) and platelet count (109/L) was measured using an hematology analyzer. Percentage of platelet loss was calculated at both time points (T+6 h and 24 h) as compared to a control group of 6 animals. PK parameters (Cinf and AUC24, which correspond to the concentration at the end of bolus administration and the area under curve over 24 h, respectively) were also determined using a non-compartmental analysis."}, "[4]": {"biological_target": "BCL2 WT (Homo sapiens (Human), UniProt P10415)", "experiment": "TR-FRET competitive binding assay, BCL2 WT", "settings": "Ki determined from IC50, read-out: TR_FRET EKI_Bcl2 WT", "outline": "as §1"}, "[5]": {"biological_target": "BCL2 D111A (Homo sapiens, UniProt P10415, D111A)", "experiment": "TR-FRET competitive binding assay, BCL2 D111A", "settings": "Ki determined from IC50, read-out: TR_FRET EKI_Bcl2 D111A", "outline": "as §1"}, "[6]": {"system": "KMS-12-PE Bcl-2 WT", "experiment": "In vitro cytotoxicity CellTiter-Glo 48 h, KMS-12-PE Bcl-2 WT", "format": "cell-based", "settings": "Homo sapiens, KMS-12-PE, C50 = concentration needed to reach 50% of the cellular viability", "outline": "(§5)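 KMS-12-PE myeloma cells were lentivirally transduced with wild-type or G101V-mutant Bcl-2 and sorted by TagRFP. They were exposed to compounds as 11-point dose responses for 48 h at 37 °C, 5% CO2. Viability was read by CellTiter-Glo ATP luminescence, and C50 was the concentration giving 50% viability.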"}, "[7]": {"system": "KMS-12-PE Bcl-2 G101V", "experiment": "In vitro cytotoxicity CellTiter-Glo 48 h, KMS-12-PE Bcl-2 G101V", "format": "cell-based", "settings": "for Ratio (G101V/WT): C50 KMS-12-PE Bcl-2 G101V over C50 KMS-12-PE Bcl-2 WT; for IC50: Homo sapiens, KMS-12-PE, 48 h, CellTiter-Glo, C50 = concentration needed to reach 50% of the cellular viability", "outline": "as §5"}, "[8]": {"biological_target": "BCL2 D103Y (Homo sapiens, UniProt P10415, D103Y)", "experiment": "TR-FRET competitive binding assay, BCL2 D103Y", "settings": "Ki determined from IC50, read-out: TR_FRET EKI_Bcl2 D103Y", "outline": "as §1"}, "[9]": {"biological_target": "BCL2 F104I (Homo sapiens, UniProt P10415, F104I)", "experiment": "TR-FRET competitive binding assay, BCL2 F104I", "settings": "Ki determined from IC50, read-out: TR_FRET EKI_Bcl2 F104I", "outline": "as §1"}, "[10]": {"system": "platelets", "experiment": "Platelet depletion in SCID mice", "format": "in vivo", "settings": "25 mg/kg IV bolus, vs control group; for Platelet loss (%) 6 h: 6 h after dosing; for Platelet loss (%) 24 h: 24 h after dosing", "protocol": "as §2, §3, §4"}, "[11]": {"biological_target": "BCLXL WT (Homo sapiens (Human), UniProt Q07817)", "sequence (Q07817 other isoform, or with tags, fused parts or gaps)": "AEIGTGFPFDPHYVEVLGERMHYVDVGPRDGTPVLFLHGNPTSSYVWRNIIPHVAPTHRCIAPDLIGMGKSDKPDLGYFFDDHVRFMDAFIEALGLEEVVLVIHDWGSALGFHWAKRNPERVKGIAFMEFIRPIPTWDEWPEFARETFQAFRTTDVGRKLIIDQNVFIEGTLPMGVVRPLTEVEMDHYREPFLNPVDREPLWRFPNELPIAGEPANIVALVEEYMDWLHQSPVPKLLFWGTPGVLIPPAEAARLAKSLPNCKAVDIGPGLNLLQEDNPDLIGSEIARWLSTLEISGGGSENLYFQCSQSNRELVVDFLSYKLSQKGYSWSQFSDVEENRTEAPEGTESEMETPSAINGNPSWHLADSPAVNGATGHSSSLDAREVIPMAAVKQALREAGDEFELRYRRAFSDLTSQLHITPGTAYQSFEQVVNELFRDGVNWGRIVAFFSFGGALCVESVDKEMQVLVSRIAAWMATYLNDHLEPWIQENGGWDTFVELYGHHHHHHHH", "experiment": "TR-FRET competitive binding assay, BCLXL WT", "settings": "for Ki: BCLXL WT, Ki determined from IC50, read-out: TR_FRET EKI BclxL; for TR_FRET EKI BCLxL/WT selectivty ratio: ratio Ki BCLxL / Ki BCL2 WT", "outline": "as §1"}}}
{"molecule": "Cc1c(N(C(=O)c2cc(-c3cc4c(cc3C(=O)N3Cc5ccccc5C[C@H]3C)CN(C(=O)Cc3ccc(OCCN5C[C@@H](C)O[C@@H](C)C5)cc3)CC4)n(C)c2C)c2ccc(O)cc2)cc(C#N)n1C", "note": "[Example 39, N-(5-cyano-1,2-dimethyl-1H-pyrrol-3-yl)-5-{2-[2-(4-{2-[cis-2,6-dimethylmorpholin-4-yl]ethoxy}phenyl)acetyl]-7-[(3R)-3-methyl-1,2,3,4-tetrahydroisoquinoline-2-carbonyl]-1,2,3,4-tetrahydroisoquinolin-6-yl}-N-(4-hydroxyphenyl)-1,2-dimethyl-1H-pyrrole-3-carboxamide]", "values": [{"measurement": "Ki", "setting": "[1]", "value": 0.7, "unit": "nM"}, {"measurement": "TR_FRET EKI G101V/WT selectivty ratio", "setting": "[2]", "value": 3.5}, {"measurement": "PK parameters Cinf", "setting": "[3]", "value": 26.5, "unit": "µM"}, {"measurement": "AUC", "setting": "[3]", "value": 26.7, "unit": "µM·h"}, {"measurement": "Ki", "setting": "[4]", "value": 0.2, "unit": "nM"}, {"measurement": "Ki", "setting": "[5]", "value": 0.18, "unit": "nM"}, {"measurement": "IC50", "setting": "[6]", "value": 0.0056, "unit": "µM"}, {"measurement": "Ratio (G101V/WT)", "setting": "[7]", "value": 4.07}, {"measurement": "IC50", "setting": "[7]", "value": 0.023, "unit": "µM"}, {"measurement": "Ki", "setting": "[8]", "value": 0.71, "unit": "nM"}, {"measurement": "Ki", "setting": "[9]", "value": 0.46, "unit": "nM"}, {"measurement": "Platelet loss (%) 6 h", "setting": "[10]", "value": 26.9, "unit": "%"}, {"measurement": "Platelet loss (%) 24 h", "setting": "[10]", "value": 20.2, "unit": "%"}, {"measurement": "Ki", "setting": "[11]", "value": 2.3, "unit": "nM"}, {"measurement": "TR_FRET EKI BCLxL/WT selectivty ratio", "setting": "[11]", "value": 11.5}]}
{"molecule": "Cc1c(N(C(=O)c2cc(-c3cc4c(cc3C(=O)N3Cc5ccccc5C[C@H]3CN3CCOCC3)CN(C(=O)Cc3ccc(OCCC5CCOCC5)cc3F)CC4)n(C)c2C)c2ccc(O)cc2)cc(C#N)n1C", "note": "[Example 54, N-(5-cyano-1,2-dimethyl-pyrrol-3-yl)-5-[2-[2-[2-fluoro-4-(2-tetrahydropyran-4-ylethoxy)phenyl]acetyl]-7-[(3S)-3-(morpholinomethyl)-3,4-dihydro-1H-isoquinoline-2-carbonyl]-3,4-dihydro-1H-isoquinolin-6-yl]-N-(4-hydroxyphenyl)-1,2-dimethyl-pyrrole-3-carboxamide]", "values": [{"measurement": "Ki", "setting": "[1]", "value": 0.3, "unit": "nM"}, {"measurement": "TR_FRET EKI G101V/WT selectivty ratio", "setting": "[2]", "value": 2.7}, {"measurement": "PK parameters Cinf", "setting": "[3]", "value": 11.4, "unit": "µM"}, {"measurement": "AUC", "setting": "[3]", "value": 9.2, "unit": "µM·h"}, {"measurement": "Ki", "setting": "[4]", "value": 0.1, "unit": "nM"}, {"measurement": "Ki", "setting": "[5]", "value": 0.4, "unit": "nM"}, {"measurement": "IC50", "setting": "[6]", "value": 0.0057, "unit": "µM"}, {"measurement": "Ratio (G101V/WT)", "setting": "[7]", "value": 4.23}, {"measurement": "IC50", "setting": "[7]", "value": 0.024, "unit": "µM"}, {"measurement": "Ki", "setting": "[8]", "value": 0.11, "unit": "nM"}, {"measurement": "Ki", "setting": "[9]", "value": 0.52, "unit": "nM"}, {"measurement": "Platelet loss (%) 6 h", "setting": "[10]", "value": 28.6, "unit": "%"}, {"measurement": "Platelet loss (%) 24 h", "setting": "[10]", "value": 22.5, "unit": "%"}, {"measurement": "Ki", "setting": "[11]", "value": 2.3, "unit": "nM"}, {"measurement": "TR_FRET EKI BCLxL/WT selectivty ratio", "setting": "[11]", "value": 24.0}]}
{"molecule": "Cc1c(N(C(=O)c2cc(-c3cc4c(cc3C(=O)N3Cc5ccccc5C[C@H]3C)CN(C(=O)Cc3ccc(OCCN5CCO[C@H](C)C5)cc3)CC4)n(C)c2C)c2ccc(O)cc2)cc(C#N)n1C", "note": "[Example 56, N-(5-cyano-1,2-dimethyl-1H-pyrrol-3-yl)-N-(4-hydroxyphenyl)-1,2-dimethyl-5-{7-[(3R)-3-methyl-1,2,3,4-tetrahydroisoquinoline-2-carbonyl]-2-(2-{4-[2-((2R)-2-methylmorpholin-4-yl)ethoxy]phenyl}acetyl)-1,2,3,4-tetrahydroisoquinolin-6-yl}-1H-pyrrole-3-carboxamide]", "values": [{"measurement": "Ki", "setting": "[1]", "value": 0.2, "unit": "nM"}, {"measurement": "TR_FRET EKI G101V/WT selectivty ratio", "setting": "[2]", "value": 2.8}, {"measurement": "PK parameters Cinf", "setting": "[3]", "value": 48.5, "unit": "µM"}, {"measurement": "AUC", "setting": "[3]", "value": 30.5, "unit": "µM·h"}, {"measurement": "Ki", "setting": "[4]", "value": 0.06, "unit": "nM"}, {"measurement": "Ki", "setting": "[5]", "value": 0.17, "unit": "nM"}, {"measurement": "IC50", "setting": "[6]", "value": 0.0048, "unit": "µM"}, {"measurement": "Ratio (G101V/WT)", "setting": "[7]", "value": 4.21}, {"measurement": "IC50", "setting": "[7]", "value": 0.0201, "unit": "µM"}, {"measurement": "Ki", "setting": "[8]", "value": 0.19, "unit": "nM"}, {"measurement": "Ki", "setting": "[9]", "value": 0.28, "unit": "nM"}, {"measurement": "Platelet loss (%) 6 h", "setting": "[10]", "value": 43.5, "unit": "%"}, {"measurement": "Platelet loss (%) 24 h", "setting": "[10]", "value": 26.9, "unit": "%"}, {"measurement": "Ki", "setting": "[11]", "value": 1.6, "unit": "nM"}, {"measurement": "TR_FRET EKI BCLxL/WT selectivty ratio", "setting": "[11]", "value": 26.7}]}
